In patent US5985824A, “Methods and compositions for treating cystic fibrosis” (priority 1997, dated 1999):
Entries after “also recorded” stand apart in the source; their conditions may differ.

Key:
[1] = toxicity of DSG to cells in culture; format: cell-based; settings: up to 72 h; read-out: concentrations toxic to most of the cell types tested
Procedure: Cells were treated with up to 100 μg/ml of DSG for up to 72 h. Concentrations of DSG >50 μg/ml were toxic to most of the cell types tested. Since DSG is modified by polyamine oxidase present in fetal bovine serum (Tepper et al., supra.), cells were routinely replenished with fresh medium containing DSG and aminoguanidine every 24 h. As a control in some experiments, C127 cells were also treated with 5 mM sodium butyrate for 24 h. to enhance expression of ΔF508-CFTR (Cheng et al. (1995), supra.). As another control, cells were cultured at 23° C. for 24 to 48 h. to facilitate folding of the mutant ΔF508-CFTR at the ER.
CFT1 and JME/CF15 are two immortalized human CF airway epitheliavarill lines which contain the ΔF508 variant (Jefferson et al. (1990), Am. J. Physiol. 259: L496-L505; Yankaskas et al., (1993), Am. J. Physiol. 264: C1219-C1230). Cells were treated with up to 100 μg/ml of DSG for up to 72 h. Concentrations of DSG >50 μg/ml were toxic to most of the cell types tested. Since DSG is modified by polyamine oxidase present in fetal bovine serum (Tepper et al., supra.), cells were routinely replenished with fresh medium containing DSG and aminoguanidine every 24 h. As a control in some experiments, cells were cultured at 23° C. for 24 to 48 h. to facilitate folding of the mutant ΔF508-CFTR at the ER. […]

ΔF508-CFTR (IBE-1 cells) = assay: whole cell patch-clamp analysis of IBE-1 cells; format: cell-based, human; settings: for reversal potential: DSG-treated cells
Procedure: The bath (extracellular) solution contained: 140 mM N-methyl-Dglucamine (NMDG), 2 mM CaCl2, 1 mM MgCl2, 0.1 mM CdCl2, 10 mM HEPES, 4 mM CsCl, and 10 mM glucose, pH 7.4. These solutions were designed so as to study only currents flowing through Cl^- channels, since Cl^- was the only significant permeant ion in the solutions. Furthermore, Ca^2+ -activated Cl^- currents were minimized by inclusion of 10 mM EGTA in the intracellular solution and 100 μM of Cd^2+ in the extracellular bath. K^+ currents were minimized by including 20 mM TEA in the intracellular solution. Aspartate was used as the replacement anion in experiments in which extracellular Cl^- concentration was changed. Forskolin (10 μM), IBMX (100 μM), 8-(4-chlorophenylthio)-cAMP (cpt-cAMP, 200 μM), diphenylamine carboxylic acid (DPC, 200 μM), UTP (100 μM), and ionomycin (1 μM) were added to the bath solutions as indicated. Current recordings were made from the same cells before, during, and after exposure to the solutions containing the different agonists or inhibitors. All experiments were performed at room temperature (22° C.). Currents were filtered at 2 kHz. Data acquisition and analysis were performed using the PCLAMP 5.5.1 software (Axon Instruments, Foster City, Calif.).
In all of the successfully patched CF IBE-1 cells from 6 separate coverslips no activation of whole cell currents in response to forskolin (10 μM) plus IBMX (100 μM) or cpt-cAMP (200 μM) was detected (FIG. 10A and 10B), indicating no endogenous CFTR channel activity in these cells. In contrast, in 7 out of 19 successful patched cells from 19 separate coverslips treated with DSG (10 μM) for 48 to 72 hrs. a significant activation of whole cell currents was observed. As all the other cells, the holding potential was 0 m, which inactivated the voltage-gated Na^+ and Ca^++ channels. After addition of 200 μM cpt-cAMP to the bath solution, voltage steps from the holding potential to between -100 mV and 80 mV in 20 mV increments activated whole cell currents. In these experiments, the intracellular and extracellular solutions were designed to study only current flowing through Cl^- channels, since Cl^- is the only significant permeant ion in solution. Ca^++ and K^+ currents were minimized by 100 μM of extracellular Cd^++ and 20 mM of intracellular TEA respectively. Furthermore, the currents were ascertained to be Cl^- currents from change in the reversal potential which was shifted from 1.1±1.5 to 47.3±6.1 mV by reducing extracellular Cl^- from 150 mM to 20 mM.
It is highly unlikely that Ca^++ -activated Cl^- was recorded in these experiments because of the presence of 10 mM intracellular EGTA and 100 µM extracellular Cd^++. […] Special attention was paid to detect possible contribution of the outwardly rectifying Cl^- channel (ORCC) to the whole cell currents. Because of a possible upregulatory role of CFTR, ORCC can be activated in normal but not in CF airway epithelial cells (Hwang et al. (1989), supra.; Li et al. (1988), Nature 331: 358-360; Morris and Frizzel (1993); Am. J. Physiol.; Schwiebert et al. (1994), Am. J. Physiol.).

SMILES: N=C(N)NCCCCCCC(=O)NC(O)C(=O)NCCCCNCCCN (centres unmarked) [DSG, deoxyspergualin]
- MCC at 72 h [1]: > 50 µg/mL
- successfully patched cells with significant activation of whole cell currents (ΔF508-CFTR (IBE-1 cells); DSG (10 μM) 48 to 72 hrs, cAMP stimulation): 7 out of 19
- reversal potential (ΔF508-CFTR (IBE-1 cells); extracellular Cl- 150 mM): 1.1±1.5 mV
- reversal potential (ΔF508-CFTR (IBE-1 cells); extracellular Cl- reduced to 20 mM): 47.3±6.1 mV
- whole cell currents, in words (ΔF508-CFTR (IBE-1 cells); IBE-1 cells): resembled those of wild-type CFTR in epithelial cells; also recorded: almost identical to that recorded in transduced CF IBE-1 cells
